Reference: patent publication US5595998A, “Pyrazoloquinolines” (priority 1994, dated 1997)

System: ras p21 protein
Assay: Ras p21 Nucleotide Exchange Assay (inhibition of ^3H-GDP binding to p21 ras)
Assay type: biochemical
Conditions: 50 μM
Description: Ras p21 Nucleotide Exchange Assay
The conditions for assay of nucleotide exchange inhibitors was adapted from Hall, A. and A. J. Self. 1986 J. Biol. Chem. 261: 10963-10965, which is hereby incorporated by reference.
0.5 μM ras p21 protein was incubated in 50 μls exhange buffer (50 mM Tris-HCl pH 7.5, 5 mM MgCl2, 50 mM NaCl and […]) on ice. Compounds dissolved in dimethyl sulfoxide (DMSO) were added to the desired concentration such that the final concentration of DMSO in the reaction mixture was 2% by weight. The reaction was incubated for 5 minutes on ice and then ^3 H-GDP (final concentration was 0.25 μM) was added.
Biological data are given throughout the specification in one of two forms: either as per cent inhibitions, or as the concentration at which the test compound causes 50% inhibition (IC50) of the binding of ^3 H-GDP to the p21 ras protein.
When the above assay was run at one concentration of the test compound, then the data was given as per cent inhibition at a particular concentration. […] When the assay was run at a series of concentrations, then the data were given as IC50 's.

SMILES	ras p21 Assay (per cent inhibition) [%]
COc1ccc2nc3nn([C@@H]4O[C@H](COC(=O)c5ccccc5)[C@@H](OC(=O)c5ccccc5)[C@@H]4OCc4ccccc4)c(C)c3c(Cl)c2c1	32

Same assay, conditions: 100 μM

SMILES	inhibition in the ras p21 assay [%]
COc1ccc2nc3c(c(C)nn3[C@@H]3O[C@H](COC(=O)c4ccccc4)[C@H]4OC(C)(C)O[C@H]43)c(OCCN(C)C)c2c1	59
COc1ccc2nc3c(c(C)nn3[C@@H]3O[C@H](COC(=O)c4ccccc4)[C@@H](OC(=O)c4ccccc4)[C@H]3OC(=O)c3ccccc3)c(OCCN(C)C)c2c1	12
COc1ccc2nc3c(c(C)nn3[C@@H]3O[C@H](COC(=O)c4ccccc4)[C@@H](OC(=O)c4ccccc4)[C@H]3OC(=O)c3ccccc3)c(NCCN3CCOCC3)c2c1	86

Same assay, conditions: read-out: IC50 in the ras p21 assay

SMILES	IC50 [µM]
COc1ccc2nc3c(cc2c1)c(C)nn3[C@@H]1O[C@H](COC(=O)c2ccccc2)[C@@H](O)[C@H]1O	50
Cc1nn([C@@H]2O[C@H](COC(=O)c3ccccc3)[C@@H](OC(=O)c3ccccc3)[C@H]2OC(=O)c2ccccc2)c2nc3ccc(O)cc3c(Cl)c12	10
COc1ccc2nc3c(c(C)nn3[C@@H]3O[C@H](C(O)CC(=O)c4ccccc4)[C@H]4OC(=S)O[C@H]43)c(Cl)c2c1 (stereo partly shown) [Compound U]	1.5

Same assay, conditions: table 1; at (100), unit not given

SMILES	Ras p21 Assay (per cent inhibition) [%]
COc1ccc2nc3nn([C@@H]4O[C@H](COC(=O)c5ccccc5)[C@H]5OC(=S)O[C@H]54)c(C)c3c(Cl)c2c1 [Cl O(CO)Ph OC(S)O]	86
COc1ccc2nc3nn([C@@H]4O[C@H](COC(=O)c5ccccc5)[C@@H](OC(C)=O)[C@H]4OC(C)=O)c(C)c3c(Cl)c2c1 [Cl O(CO)Ph OCOCH3 OCOCH3]	20
COc1ccc2nc3nn([C@@H]4O[C@H](COC(=O)c5ccccc5)[C@@H](O)[C@H]4O)c(C)c3c(Cl)c2c1 [Cl O(CO)Ph OH OH]	49
COc1ccc2nc3nn([C@@H]4O[C@H](CO)[C@@H](O)[C@H]4O)c(C)c3c(Cl)c2c1 [Cl OH OH OH]	0
COc1ccc2nc3nn([C@@H]4O[C@H](CO)[C@@H](O)[C@H]4O)c(C)c3c(O)c2c1 [OH OH OH OH]	49

Same assay, conditions: table 1; concentration causing 50% inhibition of ^3H-GDP binding; read-out: Ras p21 Assay (IC50)

SMILES	IC50 [µM]
COc1ccc2nc3nn([C@@H]4O[C@H](COC(=O)c5ccccc5)[C@@H](OC(=O)c5ccccc5)[C@H]4OC(=O)c4ccccc4)c(C)c3c(Cl)c2c1 [Cl O(CO)Ph O(CO)Ph O(CO)Ph]	10
COc1ccc2nc3nn([C@@H]4O[C@H](COC(=O)c5ccccc5)[C@@H](OC(=O)c5ccccc5)[C@H]4OC(=O)c4ccccc4)c(C)c3cc2c1 [H O(CO)Ph O(CO)Ph O(CO)Ph]	8
COc1ccc2nc3nn([C@@H]4O[C@H](COC(=O)c5ccccc5)[C@@H](OC(=O)c5ccccc5)[C@H]4OC(=O)c4ccccc4)c(C)c3c(O)c2c1 [OH O(CO)Ph O(CO)Ph O(CO)Ph]	10

Same assay, conditions: table 2; 50 μM

SMILES	ras p21 Assay (per cent inhibition) [%]
COc1ccc2nc3c(c(C)nn3[C@@H]3O[C@H](COC(=O)CC(C)C)[C@@H](OC(=O)CC(C)C)[C@H]3OC(=O)CC(C)C)c(Cl)c2c1	33
COc1ccc2nc3c(c(C)nn3[C@@H]3O[C@H](CN)[C@H]4OC(C)(C)O[C@H]43)c(Cl)c2c1 [NH2 OC(CH3)2 O]	38
COc1ccc2nc3c(c(C)nn3[C@@H]3O[C@H](COC(=O)c4ccoc4)[C@@H](OC(=O)c4ccoc4)[C@H]3OC(=O)c3ccoc3)c(Cl)c2c1 [O(CO)-3-Fu O(CO)-3-Fu O(CO)-3-Fu]	49
COc1ccc2nc3c(c(C)nn3[C@@H]3O[C@H](CNC(=O)c4ccccc4)[C@H]4OC(C)(C)O[C@H]43)c(Cl)c2c1 [O(CO)PhNH OC(CH3)2 O]	56
COc1ccc2nc3c(c(C)nn3[C@@H]3O[C@H](CNC(=O)c4ccccc4)[C@@H](O)[C@H]3O)c(Cl)c2c1 [O(CO)PhNH OH OH]	24
COc1ccc2nc3c(c(C)nn3[C@@H]3O[C@H](COC(=O)c4cccnc4)[C@@H](OC(=O)c4cccnc4)[C@H]3OC(=O)c3cccnc3)c(Cl)c2c1 [O(CO)Py O(CO)Py O(CO)Py]	33

Same assay, conditions: table 2; 100 μM

SMILES	ras p21 Assay (per cent inhibition) [%]
COc1ccc2nc3c(c(C)nn3[C@@H]3O[C@H](COC(=O)c4cc(C)ccc4C)[C@@H](OC(=O)c4cc(C)ccc4C)[C@H]3OC(=O)c3cc(C)ccc3C)c(Cl)c2c1	37
COc1ccc(C(=O)OC[C@H]2O[C@@H](n3nc(C)c4c(Cl)c5cc(OC)ccc5nc43)[C@H](OC(=O)c3ccc(OC)cc3)[C@@H]2OC(=O)c2ccc(OC)cc2)cc1	44
COc1ccc2nc3c(c(C)nn3[C@@H]3O[C@H](COCc4ccccc4)[C@@H](OCc4ccccc4)[C@H]3OCc3ccccc3)c(Cl)c2c1 [CH2 Ph CH2 Ph CH2 Ph]	35
COc1ccc2nc3c(c(C)nn3[C@@H]3O[C@H](COC(=O)Cc4ccccc4)[C@@H](OC(=O)Cc4ccccc4)[C@H]3OC(=O)Cc3ccccc3)c(Cl)c2c1 [O(CO)CH2 Ph (CO)CH2 Ph O(CO)CH2 Ph]	62
COc1ccc2nc3c(c(C)nn3[C@@H]3O[C@H](COC(=O)c4ccccc4)[C@@H](OCc4ccccc4)[C@H]3OCc3ccccc3)c(Cl)c2c1 [O(CO)Ph CH2 Ph CH2 Ph]	53
COc1ccc2nc3c(c(C)nn3[C@@H]3O[C@H](COC(=O)c4ccccc4)[C@@H](OC(C)=O)[C@H]3OC(C)=O)c(Cl)c2c1 [O(CO)Ph O(CO)CH3 O(CO)CH3]	44
COc1ccc2nc3c(c(C)nn3[C@@H]3O[C@H](COC(=O)c4ccccc4)[C@H]4OC(c5ccccc5)O[C@H]43)c(Cl)c2c1 (stereo partly shown) [O(CO)Ph OC(Ph)O]	41
COc1ccc2nc3c(c(C)nn3[C@@H]3O[C@H](COC(=O)c4ccccc4)[C@@H](O)[C@H]3O)c(Cl)c2c1 [O(CO)Ph OH OH]	16
COc1ccc2nc3c(c(C)nn3[C@@H]3O[C@H](COC(=O)c4ccc([N+](=O)[O-])cc4)[C@@H](OC(=O)c4ccc([N+](=O)[O-])cc4)[C@H]3OC(=O)c3ccc([N+](=O)[O-])cc3)c(Cl)c2c1 [O(CO)Ph-4-NO2 (CO)Ph-4-NO2 O(CO)Ph-4-NO2]	59
COc1ccc2nc3c(c(C)nn3[C@@H]3O[C@H](COC(C)=O)[C@@H](OC(C)=O)[C@H]3OC(C)=O)c(Cl)c2c1 [OCOCH3 O(CO)CH3 O(CO)CH3]	3
COc1ccc2nc3c(c(C)nn3[C@@H]3O[C@H](CO)[C@H]4OC(C)(C)O[C@H]43)c(Cl)c2c1 [OH OC(CH3)2 O]	11

Same assay, conditions: table 2; concentration causing 50% inhibition of ^3H-GDP binding; read-out: ras p21 Assay (IC50)

SMILES	IC50 [µM]
COc1ccc2nc3c(c(C)nn3[C@@H]3O[C@H](COC(=O)c4ccccc4)[C@H]4OC(=S)O[C@H]43)c(Cl)c2c1 [(CO)Ph OC(S)O]	15
COc1ccc2nc3c(c(C)nn3[C@@H]3O[C@H](C(O)CC(=O)c4ccccc4)[C@H]4OC(=S)O[C@H]43)c(Cl)c2c1 (stereo partly shown) [Compound U]	1.5
COc1ccc2nc3c(c(C)nn3[C@@H]3O[C@H](COC(=O)c4ccco4)[C@@H](OC(=O)c4ccco4)[C@H]3OC(=O)c3ccco3)c(Cl)c2c1 [O(CO)-2-Fu O(CO)-2-Fu O(CO)-2-Fu]	10
COc1ccc2nc3c(c(C)nn3[C@H]3C=C[C@@H](COC(=O)c4ccccc4)O3)c(Cl)c2c1 [O(CO)Ph --]	90
COc1ccc2nc3c(c(C)nn3[C@@H]3O[C@H](COC(=O)c4ccccc4)[C@@H](OC(=O)c4ccccc4)[C@H]3OC(=O)c3ccccc3)c(Cl)c2c1 [O(CO)Ph O(CO)Ph O(CO)Ph]	10

Same assay, conditions: table 3; 50 μM

SMILES	ras 21 assay (per cent inhibition) [%]
COc1ccc2nc3c(c(C)nn3[C@@H]3O[C@H](C(O)CC(=O)c4ccccc4)[C@@H](O)[C@H]3O)c(Cl)c2c1 (stereo partly shown)	34
COc1ccc2nc3c(c(C)nn3-c3ccc(/C=C/C(=O)c4ccccc4)o3)c(Cl)c2c1	61
COc1ccc2nc3c(c(C)nn3[C@H]3C=C[C@@H](C(O)CC(=O)c4ccccc4)O3)c(Cl)c2c1 (stereo partly shown)	48

Same assay, conditions: table 3; 100 μM

SMILES	ras 21 assay (per cent inhibition) [%]
COc1ccc2nc3c(c(C)nn3[C@@H]3O[C@H](/C=C/C(=O)c4ccccc4)[C@H]4OC(C)(C)O[C@H]43)c(Cl)c2c1	53
COc1ccc2nc3c(c(C)nn3[C@H]3C=C[C@@H](CCC(=O)c4ccccc4)O3)c(Cl)c2c1	53
COc1ccc2nc3c(c(C)nn3[C@H]3CC[C@@H](COC(=O)c4ccccc4)O3)c(Cl)c2c1	38

Same assay, conditions: table 3; concentration causing 50% inhibition of ^3H-GDP binding; read-out: ras 21 assay (IC50)

SMILES	IC50 [µM]
COc1ccc2nc3c(c(C)nn3[C@@H]3O[C@H](/C=C/C(=O)c4ccccc4)[C@@H](O)[C@H]3O)c(Cl)c2c1	10
COc1ccc2nc3c(c(C)nn3[C@H]3C=C[C@@H](/C=C/C(=O)c4ccccc4)O3)c(Cl)c2c1	35

Same assay, conditions: table 4 (arabinose derivatives); 50 μM

SMILES	p21 ras assay (per cent inhibition) [%]
COc1ccc2nc3c(c(C)nn3[C@@H]3O[C@H](COCc4ccccc4)[C@@H](OCc4ccccc4)[C@@H]3OCc3ccccc3)c(Cl)c2c1 [CH2 OBn OBn OBn Cl]	31
COc1ccc2nc3c(c(C)nn3[C@@H]3O[C@H](COC(=O)c4ccccc4)[C@@H](OC(=O)c4ccccc4)[C@@H]3OC(=O)c3ccccc3)c(Cl)c2c1 [CH2 OBz OBz OBz Cl]	17
COc1ccc2nc3c(c(C)nn3[C@@H]3O[C@H](CO)[C@@H](O)[C@@H]3O)c(Cl)c2c1 [CH2 OH OH OH Cl]	18

Same assay, conditions: table 4 (arabinose derivatives); concentration causing 50% inhibition of ^3H-GDP binding; read-out: p21 ras assay (IC50)

SMILES	IC50 [µM]
COc1ccc2nc3c(cc2c1)c(C)nn3[C@@H]1O[C@H](COC(=O)c2ccccc2)[C@@H](OC(=O)c2ccccc2)[C@@H]1OC(=O)c1ccccc1 [CH2 OBz OBz OBz H]	10
